# Assay results taken from US20250145715A1, “B7-H3 TARGETING FUSION PROTEINS AND METHODS OF USE THEREOF” (GT Biopharma, Inc., priority 2021, published 2025).
# Tested on: OVCAR8 ovarian cancer cells
# Experiment: NK cell CD107a / IFNγ flow cytometry against OVCAR8
# Assay type: cell-based, human
# Conditions: 30 nM, E:T 2:1, 4 hrs; vs no treatment and rhIL-15 alone
# Procedure: FIG. 29A is a graph illustrating pooled proportion of NK cells from healthy donors expressing CD107a+ (degranulation) against OVCAR8 and MA148 targets. FIG. 29B is a graph illustrating pooled proportion of NK cells from healthy donors expressing IFNγ cytokine production against OVCAR8 and MA148 targets.
# Healthy donor or ovarian cancer PBMC cells were incubated with ovarian tumor targets at 2:1 E:T ratio for 4 hrs with 30 nM TriKE or control condition. FIG. 30A is a graph illustrating pooled proportion of NK cells from healthy donors expressing CD107a+ (degranulation) against OVCAR8 targets (N=8). FIG. 30B is a graph illustrating pooled proportion of NK cells from healthy donors expressing IFNγ cytokine production against OVCAR8 targets (N=8). FIG. 30C is a graph illustrating pooled proportion of NK cells from healthy donors expressing CD107a+ (degranulation) against OVCAR3 targets (N=4). FIG. 30D is a graph illustrating pooled proportion of NK cells from healthy donors expressing IFNγ cytokine production against OVCAR3 targets (N=4). FIG. 30E is a graph illustrating pooled proportion of NK cells from healthy donors expressing CD107a+ (degranulation) against OVCAR5 targets (N=7). FIG. 30F is a graph illustrating pooled proportion of NK cells from healthy donors expressing IFNγ cytokine production against OVCAR5 targets (N=7). […] FIG. 30I is a graph illustrating that tumor killing was evaluated using IncuCyte imaging assay. […] The percentage of Live (Nuclight Red+Caspase 3/7−) tumor cells was quantified over a 48-h period and normalized to tumor alone. Readings were obtained every 15 min (representative of four separate experiments). * p<0.05, ** p<0.01, *** p<0.001, and **** p<0.0001.
# ADCC was measured in a flow cytometry assay by evaluating degranulation via CD107a (lysosomal-associated membrane protein LAMP-1) and intracellular IFNγ production. […] Samples were washed and evaluated in an LSRII flow cytometer (BD Biosciences, San Jose, CA, USA).
# The ability of cam1615B7-H3 TriKE to mediate NK cell activity against ovarian cancer cells was evaluated. […]
substance,measurement,value
"cam1615B7-H3: second-generation TriKE: humanized camelid anti-CD16 VHH, human wild-type IL-15, anti-B7-H3 mAb 376.96 scFv; SEQ ID NO:1",NK cell degranulation against OVCAR8,robust
same,NK cell intracellular IFNγ production against OVCAR8,robust
